Assay results as given in ChEMBL document CHEMBL4739716, “Gpr139 receptor modulators” (2020).

Assays:
[1] = target: T1, Probable G-protein coupled receptor 139 (Homo sapiens) (UniProt Q6DWJ6); experiment: Agonist activity at human GPR139 expressed in CHO-K1 cells assessed as induction of beta-arrestin 2 recruitment incubated for 90 mins by PathHunter assay relative to JNJ63533054; format: cell-based
T1 sequence (whole entry): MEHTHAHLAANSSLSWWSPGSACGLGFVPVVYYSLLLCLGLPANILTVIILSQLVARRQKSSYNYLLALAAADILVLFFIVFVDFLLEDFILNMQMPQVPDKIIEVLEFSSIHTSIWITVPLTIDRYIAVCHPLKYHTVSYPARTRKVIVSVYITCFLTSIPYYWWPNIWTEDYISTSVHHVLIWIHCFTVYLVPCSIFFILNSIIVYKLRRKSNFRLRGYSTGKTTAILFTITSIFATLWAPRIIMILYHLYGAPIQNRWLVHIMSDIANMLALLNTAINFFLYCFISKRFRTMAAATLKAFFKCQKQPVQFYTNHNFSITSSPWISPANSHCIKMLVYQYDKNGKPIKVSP

[2] = target: T2, Probable G-protein coupled receptor 139 (Homo sapiens, UniProt Q6DWJ6); experiment: Agonist activity at human GPR139 expressed in CHO-K1 cells assessed as induction of beta-arrestin 2 recruitment incubated for 90 mins by PathHunter assay; format: cell-based
T2 sequence (Q6DWJ6 whole entry): T1 sequence (whole entry)

[3] = target: T2, Probable G-protein coupled receptor 139; experiment: Agonist activity at human GPR139 expressed in CHO-K1 cells assessed as increase in calcium flux by calcium 5 dye based FLIPR assay; format: functional, cell-based
[4] = target: T3, Probable G-protein coupled receptor 139 (Rattus norvegicus) (UniProt P0C0W8); experiment: Agonist activity at rat GPR139 expressed in CHO-K1 cells assessed as increase in calcium flux by calcium 5 dye based FLIPR assay relative to JNJ63533054; format: cell-based
T3 sequence (whole entry): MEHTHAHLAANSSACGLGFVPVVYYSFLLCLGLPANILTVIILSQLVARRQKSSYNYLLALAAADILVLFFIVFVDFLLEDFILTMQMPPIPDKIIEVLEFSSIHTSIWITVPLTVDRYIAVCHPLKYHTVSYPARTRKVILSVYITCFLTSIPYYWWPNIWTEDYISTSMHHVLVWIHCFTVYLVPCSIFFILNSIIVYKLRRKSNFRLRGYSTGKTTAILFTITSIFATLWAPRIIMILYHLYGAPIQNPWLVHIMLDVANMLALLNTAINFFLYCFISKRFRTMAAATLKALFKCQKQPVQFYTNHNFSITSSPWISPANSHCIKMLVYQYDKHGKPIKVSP

[5] = target: T4, Probable G-protein coupled receptor 139 (Rattus norvegicus, UniProt P0C0W8); experiment: Agonist activity at rat GPR139 expressed in CHO-K1 cells assessed as increase in calcium flux by calcium 5 dye based FLIPR assay; format: cell-based
T4 sequence (P0C0W8 whole entry): T3 sequence (whole entry)

[6] = target: T1, Probable G-protein coupled receptor 139 (Homo sapiens); experiment: Agonist activity at human GPR139 expressed in CHO-K1 cells assessed as increase in calcium flux by calcium 5 dye based FLIPR assay relative to JNJ63533054; format: functional, cell-based; conditions: filed as agonist

Row | Emax [1] [%] | EC50 [2] [nM] | EC50 ([3]; cho-k1) [nM] | Emax [4] [%] | EC50 [5] [nM] | Emax [6] [%] | Emax ([4]; filed as agonist) [%] | EC50 ([5]; cho-k1) [nM] | Emax ([1]; filed as agonist) [%] | EC50 ([2]; cho-k1) [nM] | EC50 [3] [nM] | Compound
1 | 25 | ≥ 100 | 10 |  |  | > 80 | 50 | 1 |  |  |  | Cc1ccc([C@H](C)NC(=O)Cn2nc3cccnn3c2=O)cc1
2 |  |  | 1 |  |  | > 80 | 50 | 1 | 50 | 10 |  | C[C@H](NC(=O)Cn1nc2cccnn2c1=O)c1ccc(OC(F)(F)F)c(F)c1
3 |  |  | 1 |  |  | > 80 | 50 | 1 | 50 | 1 |  | C[C@H](NC(=O)Cn1nc2cc(C#N)ccn2c1=O)c1ccc(Cl)c(F)c1
4 |  |  |  |  | < 1 | > 80 | > 80 |  | > 80 | 1 | < 1 | COc1cnn2c(=O)n(CC(=O)N[C@@H](C)c3ccc(Cl)c(F)c3)nc2c1
5 |  | ≥ 100 | 1 |  |  | > 80 | 50 | 1 | > 80 |  |  | Cc1ccc([C@H](C)NC(=O)Cn2nc3cccnn3c2=O)cc1Cl
6 |  | ≥ 100 | 1 |  |  | > 80 | > 80 | 1 | 50 |  |  | C[C@H](NC(=O)Cn1nc2cc(N3CCOCC3)ccn2c1=O)c1ccc(OC(F)(F)F)cc1
7 |  |  | 1 |  |  | > 80 | > 80 | 1 | 50 | 10 |  | C[C@H](NC(=O)Cn1nc2cccnn2c1=O)c1ccc(Cl)c(F)c1
8 |  |  | 1 | 25 |  | > 80 |  | 1 | 50 | 10 |  | Cc1ccc([C@H](C)NC(=O)Cn2nc3cccc(F)n3c2=O)cc1
9 |  | < 1 |  |  | < 1 | > 80 | > 80 |  | > 80 |  | < 1 | COc1nc2nn(CC(=O)N[C@@H](C)c3ccc(Cl)c(F)c3)c(=O)n2cc1C
10 | 25 | ≥ 100 |  |  | ≥ 100 | 50 | > 80 |  |  |  | ≥ 100 | C[C@H](NC(=O)Cn1nc2c(OC3CN(C)C3)nccn2c1=O)c1ccc(Cl)c(F)c1
11 |  | < 1 | 1 |  |  | > 80 | 50 | 1 | 50 |  |  | C[C@H](NC(=O)Cn1nc2ccc(F)cn2c1=O)c1ccc(C(F)(F)F)cc1
12 |  | ≥ 100 | 1 |  |  | > 80 | 50 | 1 | 50 |  |  | C[C@H](NC(=O)Cn1nc2ncccn2c1=O)c1ccc(Cl)c(F)c1
13 | 25 | ≥ 100 | 10 | 25 | ≥ 100 | > 80 |  |  |  |  |  | O=C(Cn1nc2ccc(F)cn2c1=O)NC1(c2ccc(Cl)cc2)CC1
14 |  |  | 1 | 25 |  | > 80 |  | 10 | 50 | 1 |  | Cc1cnc2nn(CC(=O)N[C@@H](C)c3ccc(OC(F)(F)F)c(F)c3)c(=O)n2c1
15 | 25 |  | 1 | 25 |  | 50 |  | 1 |  | 10 |  | C[C@H](NC(=O)Cn1nc2ccc(Cl)nn2c1=O)c1ccc(OC(F)(F)F)cc1
16 | 25 | ≥ 100 |  |  | ≥ 100 | > 80 | 50 |  |  |  | ≥ 100 | O=C(Cn1nc2ccc(F)cn2c1=O)NC1(c2cccc(Cl)c2)CC1
17 | 25 |  | 1 | < 25 | ≥ 100 | > 80 |  |  |  | 10 |  | C[C@H](NC(=O)Cn1nc2ccc(C3CC3)nn2c1=O)c1ccc(OC(F)(F)F)cc1
18 |  | ≥ 100 | 1 |  |  | > 80 | 50 | 1 | 50 |  |  | C[C@H](NC(=O)Cn1nc2cccnn2c1=O)c1ccc(C2CC2)c(F)c1

More lines, now with the values behind:

Row | Compound | Emax [1] [%] | EC50 [2] [nM] | EC50 ([3]; cho-k1) [nM] | Emax [4] [%] | EC50 [5] [nM] | Emax [6] [%] | Emax ([4]; filed as agonist) [%] | EC50 ([5]; cho-k1) [nM] | Emax ([1]; filed as agonist) [%] | EC50 ([2]; cho-k1) [nM] | EC50 [3] [nM]
19 | C[C@H](NC(=O)Cn1nc2ncc(F)cn2c1=O)c1ccc(OC(F)(F)F)cc1 | 25 | ≥ 100 | 1 | 25 | ≥ 100 | > 80 |  |  |  |  | 
20 | COc1ccn2c(=O)n(CC(=O)N[C@@H](C)c3ccc(OC(F)(F)F)cc3)nc2n1 | 25 | < 1 |  | 25 |  | 50 |  | 1 |  |  | < 1
21 | C[C@H](NC(=O)Cn1nc2cc(OC3COC3)ccn2c1=O)c1ccc(OC(F)(F)F)cc1 |  | ≥ 100 | 1 |  |  | > 80 | 50 | 1 | > 80 |  | 
22 | C[C@H](NC(=O)Cn1nc2cc(C3CC3)cnn2c1=O)c1ccc(Cl)c(F)c1 |  |  |  |  | < 1 | > 80 | > 80 |  | > 80 | 1 | < 1
23 | Cc1cc(Cl)ccc1[C@H](C)NC(=O)Cn1nc2ccccn2c1=O |  |  | 1 |  |  | > 80 | 50 | 1 | > 80 | 1 | 
24 | COc1cnc2nn(CC(=O)N[C@@H](C)c3ccc(OC(F)(F)F)cc3)c(=O)n2c1 | 25 |  | 1 | < 25 | ≥ 100 | > 80 |  |  |  | 1 | 
25 | C[C@H](NC(=O)Cn1nc2cc(Cl)ccn2c1=O)c1ccc(OC(F)(F)F)cc1 |  | < 1 |  |  | < 1 | > 80 | 50 |  | 50 |  | < 1
26 | COc1cccc2nn(CC(=O)N[C@@H](C)c3ccc(C)cc3)c(=O)n12 | 25 |  |  |  |  | > 80 | 50 | 1 |  | 1 | < 1
27 | Cc1ccc([C@H](C)NC(=O)Cn2nc3ccccn3c2=O)cc1 |  |  | 1 |  |  | > 80 | 50 | 1 | 50 | 10 | 
28 | COc1ccn2c(=O)n(CC(=O)N[C@@H](C)c3ccc(Cl)c(F)c3)nc2c1 |  |  |  |  | < 1 | > 80 | 50 |  | > 80 | 1 | < 1
29 | Cc1ccc([C@H](C)NC(=O)Cn2nc3cc(Cl)ccn3c2=O)cc1 |  |  |  |  |  | > 80 | 50 | 1 | 50 | 1 | < 1
30 | CC[C@H](NC(=O)Cn1nc2cccnn2c1=O)c1ccc(Cl)c(F)c1 | 25 | ≥ 100 | 1 |  |  | > 80 | > 80 | 1 |  |  | 
31 | C[C@H](NC(=O)Cn1nc2cccnn2c1=O)c1ccc(Cl)cc1 | 25 | ≥ 100 | 1 |  |  | > 80 | 50 | 10 |  |  | 
32 | C[C@H](NC(=O)Cn1nc2ccccn2c1=O)c1cnc(C(F)(F)F)nc1 | 25 | ≥ 100 |  | < 25 | ≥ 100 | 50 |  |  |  |  | ≥ 100
33 | C[C@H](NC(=O)Cn1nc2ccccn2c1=O)c1ccc(F)cc1 | < 25 | ≥ 100 | 10 | 25 | ≥ 100 | 50 |  |  |  |  | 
34 | C[C@H](NC(=O)Cn1nc2c(I)ccnn2c1=O)c1ccc(OC(F)(F)F)cc1 | < 25 | ≥ 100 |  |  |  | 50 | 25 | 10 |  |  | < 1
